{"source": "patent US20250296953A1", "about": "“3,4-THIAZOLO-STEROIDS AND METHODS OF MAKING AND USING THE SAME” (Arkansas State University - Jonesboro, priority 2018, published 2025)", "tested_on": "60 different human tumor cell lines", "conditions": "for GI50 / TGI: five dose", "key": {"[1]": {"conditions": "A549/ATCC (Non-small Cell Lung Cancer)"}, "[2]": {"conditions": "EKVX (Non-small Cell Lung Cancer)"}, "[3]": {"conditions": "HOP-62 (Non-small Cell Lung Cancer)"}, "[4]": {"conditions": "HOP-92 (Non-small Cell Lung Cancer)"}, "[5]": {"conditions": "NCI-H23 (Non-small Cell Lung Cancer)"}, "[6]": {"conditions": "NCI-H226 (Non-small Cell Lung Cancer)"}, "[7]": {"conditions": "NCI-H322M (Non-small Cell Lung Cancer)"}, "[8]": {"conditions": "NCI-H460 (Non-small Cell Lung Cancer)"}, "[9]": {"conditions": "NCI-H522 (Non-small Cell Lung Cancer)"}}, "note": "Like-named read-outs stand apart in the source and are kept apart here.", "data": [{"smiles": "C[C@]12CCc3nc(Nc4ccc(O)cc4)sc3C1=CC[C@@H]1[C@@H]2CC[C@]2(C)C(=O)CC[C@@H]12", "note": "[IIa.35]", "values": [{"measurement": "CC50", "value": "> 100000", "unit": "nM"}, {"measurement": "GI50", "setting": "786-0 (Renal Cancer)", "value": 1800, "unit": "nM"}, {"measurement": "TGI", "setting": "786-0 (Renal Cancer)", "value": 3.82}, {"measurement": "GI50", "setting": "A498 (Renal Cancer)", "value": 14200, "unit": "nM"}, {"measurement": "TGI", "setting": "A498 (Renal Cancer)", "value": "8.06E−5"}, {"measurement": "GI50", "setting": "[1]", "value": 4420, "unit": "nM"}, {"measurement": "TGI", "setting": "[1]", "value": ">1.00E−4"}, {"measurement": "GI50", "setting": "ACHN (Renal Cancer)", "value": 2920, "unit": "nM"}, {"measurement": "TGI", "setting": "ACHN (Renal Cancer)", "value": "9.29E−6"}, {"measurement": "GI50", "setting": "BT-549 (Breast Cancer)", "value": 3130, "unit": "nM"}, {"measurement": "TGI", "setting": "BT-549 (Breast Cancer)", "value": ">1.00E−4"}, {"measurement": "GI50", "setting": "CAKI-1 (Renal Cancer)", "value": 1930, "unit": "nM"}, {"measurement": "TGI", "setting": "CAKI-1 (Renal Cancer)", "value": "3.97E−6"}, {"measurement": "GI50", "setting": "CCRF-CEM (Leukemia)", "value": 2470, "unit": "nM"}, {"measurement": "TGI", "setting": "CCRF-CEM (Leukemia)", "value": ">1.00E−4"}, {"measurement": "GI50", "setting": "COLO 205 (Colon Cancer)", "value": 2000, "unit": "nM"}, {"measurement": "TGI", "setting": "COLO 205 (Colon Cancer)", "value": "3.90E−6"}, {"measurement": "GI50", "setting": "DU-145 (Prostate Cancer)", "value": 1660, "unit": "nM"}, {"measurement": "TGI", "setting": "DU-145 (Prostate Cancer)", "value": "3.14E−6"}, {"measurement": "GI50", "setting": "[2]", "value": 10400, "unit": "nM"}, {"measurement": "TGI", "setting": "[2]", "value": "4.00E−4"}, {"measurement": "GI50", "setting": "HCC-2998 (Colon Cancer)", "value": 4110, "unit": "nM"}, {"measurement": "TGI", "setting": "HCC-2998 (Colon Cancer)", "value": ">1.00E−4"}, {"measurement": "GI50", "setting": "HCT-15 (Colon Cancer)", "value": 1660, "unit": "nM"}, {"measurement": "TGI", "setting": "HCT-15 (Colon Cancer)", "value": "4.40E−6"}, {"measurement": "GI50", "setting": "HCT-116 (Colon Cancer)", "value": 1900, "unit": "nM"}, {"measurement": "GI50", "setting": "HL-60(TB) (Leukemia)", "value": 2570, "unit": "nM"}, {"measurement": "TGI", "setting": "HL-60(TB) (Leukemia)", "value": "7.27E−6"}, {"measurement": "GI50", "setting": "[3]", "value": 3280, "unit": "nM"}, {"measurement": "TGI", "setting": "[3]", "value": "1.26E−5"}, {"measurement": "GI50", "setting": "[4]", "value": 2390, "unit": "nM"}, {"measurement": "TGI", "setting": "[4]", "value": "5.65E−6"}, {"measurement": "GI50", "setting": "HS 578T (Breast Cancer)", "value": 3380, "unit": "nM"}, {"measurement": "TGI", "setting": "HS 578T (Breast Cancer)", "value": ">1.00E−4"}, {"measurement": "GI50", "setting": "HT29 (Colon Cancer)", "value": 2130, "unit": "nM"}, {"measurement": "TGI", "setting": "HT29 (Colon Cancer)", "value": "5.59E−6"}, {"measurement": "GI50", "setting": "IGROV1 (Ovarian Cancer)", "value": 1990, "unit": "nM"}, {"measurement": "TGI", "setting": "IGROV1 (Ovarian Cancer)", "value": "5.02E−6"}, {"measurement": "GI50", "setting": "K-562 (Leukemia)", "value": 2960, "unit": "nM"}, {"measurement": "TGI", "setting": "K-562 (Leukemia)", "value": ">1.00E−4"}, {"measurement": "GI50", "setting": "KM12 (Colon Cancer)", "value": 1930, "unit": "nM"}, {"measurement": "TGI", "setting": "KM12 (Colon Cancer)", "value": "4.06E−6"}, {"measurement": "GI50", "setting": "LOX IMVI (Melanoma)", "value": 1580, "unit": "nM"}, {"measurement": "TGI", "setting": "LOX IMVI (Melanoma)", "value": "3.04E−6"}, {"measurement": "GI50", "setting": "M14 (Melanoma)", "value": 2680, "unit": "nM"}, {"measurement": "GI50", "setting": "MALME-3M (Melanoma)", "value": 1810, "unit": "nM"}, {"measurement": "TGI", "setting": "MALME-3M (Melanoma)", "value": "4.03E−6"}, {"measurement": "GI50", "setting": "MCF7 (Breast Cancer)", "value": 1660, "unit": "nM"}, {"measurement": "TGI", "setting": "MCF7 (Breast Cancer)", "value": "4.26E−6"}, {"measurement": "GI50", "setting": "MDA-MB-231/ATCC (Breast Cancer)", "value": 3220, "unit": "nM"}, {"measurement": "GI50", "setting": "MDA-MB-435 (Melanoma)", "value": 2080, "unit": "nM"}, {"measurement": "TGI", "setting": "MDA-MB-435 (Melanoma)", "value": "5.32E−6"}, {"measurement": "GI50", "setting": "MDA-MB-468 (Breast Cancer)", "value": 2170, "unit": "nM"}, {"measurement": "TGI", "setting": "MDA-MB-468 (Breast Cancer)", "value": "5.80E−6"}, {"measurement": "GI50", "setting": "MOLT-4 (Leukemia)", "value": 2380, "unit": "nM"}, {"measurement": "TGI", "setting": "MOLT-4 (Leukemia)", "value": ">1.00E−4"}, {"measurement": "GI50", "setting": "[5]", "value": 3960, "unit": "nM"}, {"measurement": "TGI", "setting": "[5]", "value": ">1.00E−4"}, {"measurement": "GI50", "setting": "[6]", "value": 2860, "unit": "nM"}, {"measurement": "TGI", "setting": "[6]", "value": "8.52E−6"}, {"measurement": "GI50", "setting": "[7]", "value": 6400, "unit": "nM"}, {"measurement": "TGI", "setting": "[7]", "value": ">1.00E−4"}, {"measurement": "GI50", "setting": "[8]", "value": 3010, "unit": "nM"}, {"measurement": "TGI", "setting": "[8]", "value": "1.05E−5"}, {"measurement": "GI50", "setting": "[9]", "value": 1420, "unit": "nM"}, {"measurement": "TGI", "setting": "[9]", "value": "2.96E−6"}, {"measurement": "GI50", "setting": "NCI/ADR-RES (Ovarian Cancer)", "value": 3270, "unit": "nM"}, {"measurement": "TGI", "setting": "NCI/ADR-RES (Ovarian Cancer)", "value": ">1.00E−4"}, {"measurement": "GI50", "setting": "OVCAR-3 (Ovarian Cancer)", "value": 1710, "unit": "nM"}, {"measurement": "TGI", "setting": "OVCAR-3 (Ovarian Cancer)", "value": "3.38E−6"}, {"measurement": "GI50", "setting": "OVCAR-4 (Ovarian Cancer)", "value": 2030, "unit": "nM"}, {"measurement": "GI50", "setting": "OVCAR-5 (Ovarian Cancer)", "value": 3910, "unit": "nM"}, {"measurement": "TGI", "setting": "OVCAR-5 (Ovarian Cancer)", "value": ">1.00E−4"}, {"measurement": "GI50", "setting": "OVCAR-8 (Ovarian Cancer)", "value": 3220, "unit": "nM"}, {"measurement": "TGI", "setting": "OVCAR-8 (Ovarian Cancer)", "value": ">1.00E−4"}, {"measurement": "GI50", "setting": "PC-3 (Prostate Cancer)", "value": 2490, "unit": "nM"}, {"measurement": "TGI", "setting": "PC-3 (Prostate Cancer)", "value": "8.15E−6"}, {"measurement": "GI50", "setting": "RXF 393 (Renal Cancer)", "value": 1780, "unit": "nM"}, {"measurement": "TGI", "setting": "RXF 393 (Renal Cancer)", "value": "4.14E−6"}]}]}
